Assay results published in ChEMBL document CHEMBL1154987, “C-Aryl glycoside inhibitors of SGLT2: Exploration of sugar modifications including C-5 spirocyclization” (Bioorg Med Chem Lett, 2010).
pIC50: −log10 of the molar value.

Experiments:
[1] = molecular target: T1, Sodium/glucose cotransporter 2 (Homo sapiens, UniProt P31639); assay: Inhibition of human SGLT2 expressed in CHO cells assessed as inhibition of sodium-dependent methyl-alpha-D-[U-14C]glucopyranoside uptake after 2 hrs; assay type: cell-based
T1 sequence (P31639 whole entry): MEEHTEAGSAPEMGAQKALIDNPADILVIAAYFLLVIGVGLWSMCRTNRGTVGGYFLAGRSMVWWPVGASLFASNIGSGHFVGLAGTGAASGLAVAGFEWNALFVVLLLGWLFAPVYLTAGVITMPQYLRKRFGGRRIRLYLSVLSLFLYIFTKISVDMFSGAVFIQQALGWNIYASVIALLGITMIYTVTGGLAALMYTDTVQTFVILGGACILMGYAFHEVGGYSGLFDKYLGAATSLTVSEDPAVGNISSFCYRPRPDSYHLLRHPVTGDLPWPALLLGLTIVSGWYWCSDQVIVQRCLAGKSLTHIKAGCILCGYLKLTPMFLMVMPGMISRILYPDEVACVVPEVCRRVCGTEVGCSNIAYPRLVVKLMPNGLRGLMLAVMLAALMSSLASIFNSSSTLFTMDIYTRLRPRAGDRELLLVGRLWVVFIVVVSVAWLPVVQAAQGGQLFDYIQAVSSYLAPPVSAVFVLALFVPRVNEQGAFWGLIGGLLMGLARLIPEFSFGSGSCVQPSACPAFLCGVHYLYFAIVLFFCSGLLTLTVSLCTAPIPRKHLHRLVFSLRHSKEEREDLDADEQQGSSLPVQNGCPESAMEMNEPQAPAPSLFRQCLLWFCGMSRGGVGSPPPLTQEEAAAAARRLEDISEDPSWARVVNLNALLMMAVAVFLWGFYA

[2] = molecular target: T2, Sodium/glucose cotransporter 1 (Homo sapiens, UniProt P13866); assay: Inhibition of human SGLT1 expressed in CHO cells assessed as inhibition of sodium-dependent methyl-alpha-D-[U-14C]glucopyranoside uptake after 2 hrs; assay type: cell-based
T2 sequence (P13866 whole entry): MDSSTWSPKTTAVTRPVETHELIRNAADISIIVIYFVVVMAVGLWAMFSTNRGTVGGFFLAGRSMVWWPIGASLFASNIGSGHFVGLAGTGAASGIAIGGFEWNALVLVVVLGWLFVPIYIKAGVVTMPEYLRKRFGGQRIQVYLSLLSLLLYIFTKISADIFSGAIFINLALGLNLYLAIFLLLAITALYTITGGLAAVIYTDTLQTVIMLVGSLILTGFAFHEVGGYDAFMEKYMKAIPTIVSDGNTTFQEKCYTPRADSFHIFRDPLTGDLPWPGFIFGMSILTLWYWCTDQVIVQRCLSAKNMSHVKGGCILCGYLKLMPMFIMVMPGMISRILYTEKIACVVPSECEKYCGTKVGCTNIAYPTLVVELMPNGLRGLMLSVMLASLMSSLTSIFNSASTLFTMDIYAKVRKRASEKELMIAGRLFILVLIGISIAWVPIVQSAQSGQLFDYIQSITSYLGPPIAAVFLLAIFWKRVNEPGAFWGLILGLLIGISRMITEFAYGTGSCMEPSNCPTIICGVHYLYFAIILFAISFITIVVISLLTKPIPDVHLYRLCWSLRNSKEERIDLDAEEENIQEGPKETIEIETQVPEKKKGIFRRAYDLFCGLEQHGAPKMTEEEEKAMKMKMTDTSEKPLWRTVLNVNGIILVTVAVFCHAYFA

[3] = Half life in Sprague-Dawley rat at 1 mg/kg, iv; assay type: ADME, organism-based; design: dose 1 mg/kg, route intravenous; conditions: in vivo
[4] = Volume of distribution at steady state in Sprague-Dawley rat at 1 mg/kg, iv; assay type: ADME, organism-based; design: dose 1 mg/kg, route intravenous; conditions: in vivo, read-out: Vdss
Homo sapiens = organism: Homo sapiens; assay: Selectivity ratio of IC50 for human SGLT2 over IC50 for human SGLT1
[5] = Clearance in Sprague-Dawley rat at 1 mg/kg, iv; assay type: ADME, organism-based; design: dose 1 mg/kg, route intravenous; conditions: in vivo
[6] = Half life in Sprague-Dawley rat at 2 mg/kg, iv; assay type: ADME, organism-based; design: dose 2 mg/kg, route intravenous; conditions: in vivo
[7] = Oral bioavailability in Sprague-Dawley rat at 5 mg/kg; assay type: ADME, organism-based; conditions: in vivo
[8] = Clearance in Sprague-Dawley rat at 2 mg/kg, iv; assay type: ADME, organism-based; design: dose 2 mg/kg, route intravenous; conditions: in vivo
[9] = Volume of distribution at steady state in Sprague-Dawley rat at 2 mg/kg, iv; assay type: ADME, organism-based; design: dose 2 mg/kg, route intravenous; conditions: in vivo, read-out: Vdss
Rattus norvegicus = assay: Antidiabetic activity in Sprague-Dawley rat assessed as maximum urinary glucose excretion at 60 mg/kg, po over 24 hrs measured per 200 g body weight; assay type: functional, Urine

| SMILES | pIC50 [1] | pIC50 [2] | further results |
| --- | --- | --- | --- |
| CCc1ccc(Cc2cc([C@H]3C[C@@H](O)[C@H](O)[C@@H](CO)O3)ccc2C)cc1 | < 5.00 |  |  |
| CCOc1ccc(Cc2cc([C@@H]3OC4(COC4)[C@@H](O)[C@H](O)[C@H]3O)ccc2Cl)cc1 | 7.49 | 5.25 |  |
| CCOc1ccc(Cc2cc([C@@H]3O[C@H](CO)[C@@H](O)[C@H](O)[C@H]3O)ccc2Cl)cc1 [DAPAGLIFLOZIN] |  |  | half-life [6]: 264 min; bioavailability [7]: 100%; clearance [8]: 10 mL/min/kg; Vd [9]: 3.8 L/kg |
| CCc1ccc(Cc2cc([C@@H]3O[C@H](CO)[C@H](O)[C@H](O)[C@H]3O)ccc2C)cc1 | 6.86 |  |  |
| CCc1ccc(Cc2cc([C@@H]3O[C@H](CO)[C@@H](O)C[C@H]3O)ccc2C)cc1 | 5.70 |  |  |
| CCc1ccc(Cc2cc([C@@H]3OC4(CNC4)[C@@H](O)[C@H](O)[C@H]3O)ccc2C)cc1 | 5.29 | < 5.00 |  |
| COc1ccc(Cc2cc([C@@H]3O[C@H](CO)[C@@H](O)[C@H](O)[C@H]3OC)ccc2Cl)cc1 | 6.85 |  |  |
| COc1ccc(Cc2cc([C@@H]3O[C@H](CO)[C@@H](OC)[C@H](O)[C@H]3O)ccc2Cl)cc1 | 6.74 |  |  |
| CCc1ccc(Cc2cc([C@@H]3O[C@]4(CCCO4)[C@@H](O)[C@H](O)[C@H]3O)ccc2C)cc1 | 7.28 | 5.96 |  |
| COc1ccc(Cc2cc([C@@H]3OC4(CC4)[C@@H](O)[C@H](O)[C@H]3O)ccc2C)cc1 | 8.10 | 6.43 | half-life [3]: 36.6 min; Vd [4]: 2.6 L/kg; Ratio IC50 (Homo sapiens): 47; clearance [5]: 48.9 mL/min/kg |
| CCc1ccc(Cc2cc([C@@H]3O[C@H](CO)[C@@H](O)[C@@H](O)[C@H]3O)ccc2C)cc1 | 5.43 |  |  |
| COc1ccc(Cc2cc([C@@H]3OC4(COC4)[C@@H](O)[C@H](O)[C@H]3O)ccc2Cl)cc1 | 7.64 | < 5.02 |  |
| CCc1ccc(Cc2cc([C@@H]3OC4(CS(=O)(=O)C4)[C@@H](O)[C@H](O)[C@H]3O)ccc2C)cc1 | 7.85 | < 5.00 |  |
| COc1ccc(Cc2cc([C@@H]3OC(CO)(CO)[C@@H](O)[C@H](O)[C@H]3O)ccc2Cl)cc1 | 7.23 | 5.17 |  |
| COc1ccc(Cc2cc([C@@H]3O[C@H](CO)C[C@H](O)[C@H]3O)ccc2Cl)cc1 | 7.68 |  |  |

More lines, main results first:

| pIC50 [1] | pIC50 [2] | SMILES | further results |
| --- | --- | --- | --- |
| 9.00 | 6.62 | COc1ccc(Cc2cc([C@@H]3O[C@H](CO)[C@@H](O)[C@H](O)[C@H]3O)ccc2Cl)cc1 |  |
| 8.52 | 6.72 | CCc1ccc(Cc2cc([C@@H]3OC4(CC4)[C@@H](O)[C@H](O)[C@H]3O)ccc2C)cc1 | half-life [3]: 35.4 min; Vd [4]: 5.7 L/kg; Ratio IC50 (Homo sapiens): 63; clearance [5]: 112 mL/min/kg |
| 8.82 |  | CCc1ccc(Cc2cc([C@@H]3O[C@H](CO)[C@@H](O)[C@H](O)[C@H]3O)ccc2C)cc1 |  |
| 8.62 | 7.14 | COc1ccc(Cc2cc([C@@H]3O[C@H](C)[C@@H](O)[C@H](O)[C@H]3O)ccc2Cl)cc1 |  |
| 8.29 |  | COc1ccc(Cc2cc([C@@H]3O[C@H](CF)[C@@H](O)[C@H](O)[C@H]3O)ccc2Cl)cc1 |  |
| 8.18 | 5.81 | COc1ccc(Cc2cc([C@@H]3OC4(COC4)[C@@H](O)[C@H](O)[C@H]3O)ccc2C)cc1 | half-life [6]: 72 min; bioavailability [7]: 100%; Activity (Rattus norvegicus): 2000 mg; clearance [8]: 22.3 mL/min/kg; Vd [9]: 2.3 L/kg |
| 8.47 | 5.82 | CCc1ccc(Cc2cc([C@@H]3OC4(COC4)[C@@H](O)[C@H](O)[C@H]3O)ccc2C)cc1 |  |
